The numbers were not newly measured in patent US20070298107A1, “Pharmaceutical Compositions of Mirtazapine” (AUROBINDO PHARMA LTD., priority 2003, published 2007), which cites them from elsewhere.

For the data set the following is noted: background statement.

As to `CN1CCN2c3ncccc3Cc3ccccc3C2C1` (stereo not shown) [Mirtazapine], the solubility in water entry is “essentially insoluble”.
